ChEMBL document CHEMBL1201862, “PubChem BioAssay data set” (2004)
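48-hour exposure; five concentrations; linearly interpolated endpoints. GI50 is the concentration that inhibits growth by half.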 Calls of active or inactive are those of the source. Rule as the data show it: active = GI50 up to about 1.1 µM and inactive = higher.

How the values were obtained:
Assay in all cases: DTP human tumour cell line panel, 48 h
SF-295 = test system: SF-295
MOLT-4 = test system: MOLT-4
HT-29 = test system: HT-29
UACC-62 = test system: UACC-62
COLO 205 = test system: COLO 205
CCRF-CEM = test system: CCRF-CEM
SK-MEL-5 = test system: SK-MEL-5
OVCAR-3 = test system: OVCAR-3
PC-3 = test system: PC-3
DU-145 = test system: DU-145
NCI-H460 = test system: NCI-H460
HCT-116 = test system: HCT-116
SK-MEL-28 = test system: SK-MEL-28
IGROV-1 = test system: IGROV-1
786-0 = test system: 786-0
SK-MEL-2 = test system: SK-MEL-2
TK-10 = test system: TK-10
Hs-578T = test system: Hs-578T

| SMILES | GI50 (SF-295) | GI50 (MOLT-4) | GI50 (HT-29) | GI50 (UACC-62) | GI50 (COLO 205) | GI50 (CCRF-CEM) | GI50 (SK-MEL-5) | GI50 (OVCAR-3) | GI50 (PC-3) | GI50 (DU-145) | GI50 (NCI-H460) | GI50 (HCT-116) | GI50 (SK-MEL-28) | GI50 (IGROV-1) | GI50 (786-0) | GI50 (SK-MEL-2) | GI50 (TK-10) | GI50 (Hs-578T) |
| --- | --- | --- | --- | --- | --- | --- | --- | --- | --- | --- | --- | --- | --- | --- | --- | --- | --- | --- |
| CC(C)(Cl)C(Cl)CC/C(CBr)=C(\Cl)CCl (stereo not given) | 16.3 µM (inactive) | 0.491 µM (active) | 2.82 µM (inactive) | 1.67 µM (inactive) | 4.89 µM (inactive) | 0.294 µM (active) | 2.31 µM (inactive) | 4.48 µM (inactive) | 7.31 µM (inactive) | 13.4 µM (inactive) | 12.7 µM (inactive) | 3.93 µM (inactive) | 2.92 µM (inactive) | 2.04 µM (inactive) | 2.55 µM (inactive) | 2.47 µM (inactive) | 14.1 µM (inactive) | 5.32 µM (inactive) |
| Cc1cccc(C)c1NC(=S)NC=C(C(N)=O)C(N)=O | > 100 µM (inactive) | > 100 µM (inactive) | > 100 µM (inactive) | > 100 µM (inactive) | > 100 µM (inactive) | > 100 µM (inactive) | > 100 µM (inactive) | > 100 µM (inactive) | > 100 µM (inactive) | > 100 µM (inactive) | > 100 µM (inactive) | > 100 µM (inactive) | > 100 µM (inactive) | > 100 µM (inactive) | > 100 µM (inactive) | > 100 µM (inactive) | > 100 µM (inactive) | > 100 µM (inactive) |
| O=c1[nH]c(=O)n(COC(CO)CO)cc1-c1ccccc1 | > 100 µM (inactive) | > 100 µM (inactive) | > 100 µM (inactive) | > 100 µM (inactive) | > 100 µM (inactive) | > 100 µM (inactive) | > 100 µM (inactive) | > 100 µM (inactive) | > 100 µM (inactive) | > 100 µM (inactive) | > 100 µM (inactive) | > 100 µM (inactive) | > 100 µM (inactive) | > 100 µM (inactive) | > 100 µM (inactive) | > 100 µM (inactive) | > 100 µM (inactive) | > 100 µM (inactive) |
| COC(=O)C1C(C(=O)OC)C2(OC(c3ccc(Cl)cc3)=CC2=O)C12OC(c1ccc(Cl)cc1)=CC2=O (stereo not given) | 22.6 µM (inactive) | 4.45 µM (inactive) | 16.7 µM (inactive) | 14.6 µM (inactive) | 16.7 µM (inactive) | 3.01 µM (inactive) | 19.3 µM (inactive) | 19.2 µM (inactive) | 21.8 µM (inactive) | 29.9 µM (inactive) | 19.8 µM (inactive) | 14.9 µM (inactive) | 36.8 µM (inactive) | 17 µM (inactive) | 16.6 µM (inactive) | 24 µM (inactive) | 22.6 µM (inactive) | 30.5 µM (inactive) |
| CCOC(=O)c1sc2[n+](c1C)C(=O)/C(=C/c1ccccc1Cl)S2 | 0.324 µM (active) | 3.33 µM (inactive) | 3.44 µM (inactive) | 0.447 µM (active) | 3.13 µM (inactive) | 15.3 µM (inactive) | 0.421 µM (active) | 0.891 µM (active) | 0.989 µM (active) | 1.85 µM (inactive) | 0.65 µM (active) | 0.627 µM (active) | 9.75 µM (inactive) | 1.84 µM (inactive) | 0.618 µM (active) | 9.35 µM (inactive) | 15.3 µM (inactive) | 0.822 µM (active) |
| CCN(CC)CCC1CCCCN1CC(=O)N1c2ccccc2NC(=O)c2ccccc21 (stereo not given) | > 100 µM (inactive) | > 100 µM (inactive) | > 100 µM (inactive) | > 100 µM (inactive) | > 100 µM (inactive) | > 100 µM (inactive) | > 100 µM (inactive) | > 100 µM (inactive) | > 100 µM (inactive) | > 100 µM (inactive) | > 100 µM (inactive) | > 100 µM (inactive) | > 100 µM (inactive) | > 100 µM (inactive) | > 100 µM (inactive) | > 100 µM (inactive) | > 100 µM (inactive) | > 100 µM (inactive) |
| COC(=O)/C=C(\S/C(=N\n1cc(C(=O)OC)c(C(=O)OC)c1-c1ccc(C)cc1)c1ccc(C)cc1)C(=O)OC | 32.8 µM (inactive) | 4.26 µM (inactive) | 4.91 µM (inactive) | 12 µM (inactive) | 2.45 µM (inactive) | 0.34 µM (active) | 13.4 µM (inactive) | 4.67 µM (inactive) | 5.28 µM (inactive) | 6.78 µM (inactive) | 17.7 µM (inactive) | 1.97 µM (inactive) | 5.78 µM (inactive) | 7.85 µM (inactive) | 4.44 µM (inactive) | 6.12 µM (inactive) | 3.03 µM (inactive) | 18.4 µM (inactive) |
| O=C(CC(O)(C(F)(F)Cl)C(F)(F)Cl)CC(O)(C(F)(F)Cl)C(F)(F)Cl | 2.36 µM (inactive) | 2.14 µM (inactive) | 1.65 µM (inactive) | 0.738 µM (active) | 1.63 µM (inactive) | 2.29 µM (inactive) | 1.25 µM (inactive) | 1.12 µM (inactive) | 1.11 µM (active) | 0.515 µM (active) | 1.24 µM (inactive) | 1.19 µM (inactive) | 1.95 µM (inactive) | 2.17 µM (inactive) | 2.89 µM (inactive) | 1.13 µM (inactive) | 1.81 µM (inactive) | 1.92 µM (inactive) |
| CC[C@]1(Cc2ccc(OC)c(OC)c2)C=[N+]([O-])O[C@H](OC2CCCC2(c2ccccc2)c2ccccc2)[C@@H]1OC(=O)C(C)(C)C (stereo not given in full) | 3.47 µM (inactive) | 2.76 µM (inactive) | 1.86 µM (inactive) | 3.66 µM (inactive) | 2.6 µM (inactive) | 2.6 µM (inactive) | 2.03 µM (inactive) | 1.55 µM (inactive) | 3.69 µM (inactive) | 2 µM (inactive) | 2.69 µM (inactive) | 1.98 µM (inactive) | 2.09 µM (inactive) | 2.62 µM (inactive) | 2.05 µM (inactive) | 2.66 µM (inactive) | 3.23 µM (inactive) | 2.72 µM (inactive) |
| Cc1nnc2n(c1=O)CCCN2C | > 100 µM (inactive) | > 100 µM (inactive) | > 100 µM (inactive) | > 100 µM (inactive) | > 100 µM (inactive) | > 100 µM (inactive) | > 100 µM (inactive) | > 100 µM (inactive) | > 100 µM (inactive) | > 100 µM (inactive) | > 100 µM (inactive) | > 100 µM (inactive) | > 100 µM (inactive) | > 100 µM (inactive) | > 100 µM (inactive) | > 100 µM (inactive) | > 100 µM (inactive) | > 100 µM (inactive) |
| COC(=O)CCC(NC(=O)OC(C)(C)C)C(=O)NC(Cc1ccc(NC(=O)CCCC(C)=O)cc1)C(=O)NC(CCC(=O)OC)C(=O)OC (stereo not given) | > 100 µM (inactive) | > 100 µM (inactive) | > 100 µM (inactive) | > 100 µM (inactive) | > 100 µM (inactive) | > 100 µM (inactive) | > 100 µM (inactive) | > 100 µM (inactive) | > 100 µM (inactive) | > 100 µM (inactive) | > 100 µM (inactive) | > 100 µM (inactive) | > 100 µM (inactive) | > 100 µM (inactive) | > 100 µM (inactive) | > 100 µM (inactive) | > 100 µM (inactive) | > 100 µM (inactive) |
| c1cc2c3ccsc3c3sccc3c2s1 | > 100 µM (inactive) | 55.7 µM (inactive) | 99.5 µM (inactive) | > 100 µM (inactive) | > 100 µM (inactive) | > 100 µM (inactive) | > 100 µM (inactive) | > 100 µM (inactive) | > 100 µM (inactive) | > 100 µM (inactive) | > 100 µM (inactive) | > 100 µM (inactive) | > 100 µM (inactive) | 16.3 µM (inactive) | 95.9 µM (inactive) | 10.6 µM (inactive) | > 100 µM (inactive) | 11.9 µM (inactive) |
| Nc1nc(N)c2nc(CN(C=O)c3ccc(C(=O)O)cc3)cnc2n1 | 17.1 µM (inactive) | 4.81 µM (inactive) | > 100 µM (inactive) | 7.11 µM (inactive) | > 100 µM (inactive) | 4.15 µM (inactive) | 63.4 µM (inactive) | > 100 µM (inactive) | 0.668 µM (active) | 7.38 µM (inactive) | 7.55 µM (inactive) | 3.84 µM (inactive) | > 100 µM (inactive) | 44.5 µM (inactive) | 3.05 µM (inactive) | > 100 µM (inactive) | > 29.2 µM (inactive) | > 100 µM (inactive) |
| Oc1ccc2c(c1)OCC1c3ccccc3OC21 (stereo not given) | 50.6 µM (inactive) | 19.6 µM (inactive) | 37.9 µM (inactive) | 61.5 µM (inactive) | > 100 µM (inactive) | 30.3 µM (inactive) | 38.5 µM (inactive) | 59 µM (inactive) | 56.8 µM (inactive) | > 100 µM (inactive) | 41.6 µM (inactive) | 91.2 µM (inactive) | > 100 µM (inactive) | 51.9 µM (inactive) | > 100 µM (inactive) | 60.5 µM (inactive) | 87.7 µM (inactive) | 47.5 µM (inactive) |
| C#CCNC(CCCNC(=N)N)C(=O)O (stereo not given) | > 100 µM (inactive) | > 100 µM (inactive) | > 100 µM (inactive) | > 100 µM (inactive) | > 100 µM (inactive) | > 100 µM (inactive) | > 100 µM (inactive) | > 100 µM (inactive) | > 100 µM (inactive) | > 100 µM (inactive) | > 100 µM (inactive) | > 100 µM (inactive) | > 100 µM (inactive) | > 100 µM (inactive) | > 100 µM (inactive) | > 100 µM (inactive) | > 100 µM (inactive) | > 100 µM (inactive) |
